Data reported in PMC2853924 (Journal of medicinal chemistry, 2010).
Where two headings read alike, the source gives them in different places.

How the values were obtained:
Torpedo VAChT [1] = target: T1, Torpedo VAChT (Tetronarce californica, UniProt P81721); details: read-out: VAChT (Ki [nM]), cited from earlier work
T1 sequence (P81721 1-515): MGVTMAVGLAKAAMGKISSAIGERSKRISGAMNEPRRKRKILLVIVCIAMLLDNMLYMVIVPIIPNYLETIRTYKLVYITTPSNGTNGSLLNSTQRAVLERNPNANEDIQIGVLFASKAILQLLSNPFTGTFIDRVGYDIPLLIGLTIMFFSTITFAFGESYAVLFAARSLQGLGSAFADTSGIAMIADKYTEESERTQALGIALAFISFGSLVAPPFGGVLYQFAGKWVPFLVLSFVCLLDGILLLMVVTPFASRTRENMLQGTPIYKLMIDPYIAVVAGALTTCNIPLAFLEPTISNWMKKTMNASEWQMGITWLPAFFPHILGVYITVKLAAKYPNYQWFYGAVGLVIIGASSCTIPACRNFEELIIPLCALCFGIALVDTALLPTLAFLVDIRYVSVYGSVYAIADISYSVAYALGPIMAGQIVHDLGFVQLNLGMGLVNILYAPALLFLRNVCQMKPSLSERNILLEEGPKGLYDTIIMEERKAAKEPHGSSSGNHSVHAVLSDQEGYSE

Torpedo VAChT [2] = target: T1, Torpedo VAChT; details: for VAChT/sigma selectivity index (selectivity ratio): Ki (σ1 or σ2)/Ki (VAChT); for VAChT/σ selectivity (in words): based on selectivity index
σ1 receptor = σ1 receptor (Cavia porcellus, UniProt Q60492); format: binding, guinea pig
Sequence of σ1 receptor (Q60492 whole entry): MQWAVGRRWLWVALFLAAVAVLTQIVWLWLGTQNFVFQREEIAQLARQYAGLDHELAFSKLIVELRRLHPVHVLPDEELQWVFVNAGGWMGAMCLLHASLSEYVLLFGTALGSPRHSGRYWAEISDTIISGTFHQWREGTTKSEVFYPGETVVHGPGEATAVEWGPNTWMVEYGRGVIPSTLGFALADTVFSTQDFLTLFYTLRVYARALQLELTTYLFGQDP

σ2 receptor = target: T2, σ2 receptor (Rattus norvegicus, UniProt Q5U3Y7); assay: σ2 receptor binding assay, [3H]DTG, rat liver membrane homogenates
T2 sequence (Q5U3Y7 1-176): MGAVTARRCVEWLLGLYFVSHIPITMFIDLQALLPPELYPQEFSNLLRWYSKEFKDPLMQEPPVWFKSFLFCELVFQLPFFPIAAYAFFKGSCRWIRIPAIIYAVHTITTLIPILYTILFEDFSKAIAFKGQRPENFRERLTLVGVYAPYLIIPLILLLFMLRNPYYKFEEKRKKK

O=C(c1ccc(F)cc1)C1CCN([C@@H]2Cc3ccccc3C[C@H]2O)CC1 (relative stereo) [Compound 28b, trans-3-[4-(4-fluorobenzoyl)piperidinyl]-2-hydroxy-1,2,3,4-tetrahydronaphthalene]
Ki (Torpedo VAChT [1]): 2.7 ± 0.4 nM

Cl.O=C(c1ccccc1)C1(c2ccccc2)CCN([C@@H]2CCCC[C@H]2O)CC1 [Compound 20, 2-(4-Benzoyl-4-phenylpiperidinyl)cyclohexanol hydrochloride]
fold lower affinity for VAChT than vesamicol (1) (Torpedo VAChT [2]; relative to vesamicol (1)): 35 fold

Cl.Nc1cccc2c1C[C@@H](N1CCC(C(=O)c3cccs3)CC1)[C@H](O)C2 [Compound 30f, 5-Amino-3-[4-(thien-2-yl)carbonylpiperidyl]-2-hydroxy-1,2,3,4-tetrahydronaphthalene hydrochloride]
Selectivity Index Ki-σ1/Ki-VAChT (σ1 receptor; Ki (σ1)/Ki (VAChT)): >204.1 | Selectivity Index Ki-σ2/Ki-VAChT (σ2 receptor): >204.1

Cl.Nc1cccc2c1C[C@@H](N1CCC(C(=O)c3ccc(Br)cc3)CC1)[C@H](O)C2 [Compound 30c, 5-Amino-3-[4-(p-bromobenzoyl)piperidinyl]-2-hydroxy-1,2,3,4,-tetrahydronaphthalene hydrochloride]
VAChT/sigma selectivity index (selectivity ratio) (Torpedo VAChT [2]): greater than 500

Cl.O=C(c1ccccc1)C1(c2ccccc2)CCN([C@@H]2Cc3ccccc3C[C@H]2O)CC1 (relative stereo) [Compound 22a, trans-3-(4-Benzoyl-4-phenylpiperidinyl)-2-hydroxy-1,2,3,4-tetrahydronaphthalene hydrochloride]
fold less potent at VAChT than benzovesamicol (2) (Torpedo VAChT [2]; relative to benzovesamicol (2)): 30 fold

Cl.Nc1cccc2c1C[C@@H](N1CCC(C(=O)c3ccc(Br)s3)CC1)[C@H](O)C2 [Compound 30g, 5-Amino-3-[4-(5-bromothien-2-yl)carbonylpiperidinyl]-2-hydroxy-1,2,3,4-tetrahydronaphthalene hydrochloride]
Selectivity Index Ki-σ1/Ki-VAChT (σ1 receptor): >2439.0 | Selectivity Index Ki-σ2/Ki-VAChT (σ2 receptor): >2439.0 | VAChT/sigma selectivity index (selectivity ratio) (Torpedo VAChT [2]): greater than 1000

Cl.O=C(c1ccc(Br)s1)C1CCN([C@@H]2Cc3ccccc3C[C@H]2O)CC1 (relative stereo) [Compound 28g, trans-3-[4-(5-Bromothienylcarbonyl)piperidinyl]-2-hydroxy-1,2,3,4-tetrahydronaphthalene hydrochloride]
VAChT/σ selectivity (in words) (Torpedo VAChT [2]): high VAChT/σ selectivity

Nc1cccc2c1CC(N1CCC(c3ccccc3)CC1)C(O)C2 (stereo not shown) [Compound 3, reference compound]
Ki (Torpedo VAChT [1]; Torpedo synaptic vesicles): 0.0065 ± 0.0005 nM

Cl.O=C(c1ccc(I)s1)C1CCN([C@@H]2CCCC[C@H]2O)CC1 [Compound 27h, 2-[4-(5-Iodothien-2-yl)carbonylpiperidinyl]cyclohexanol hydrochloride]
affinity for σ1 receptors (class in words) (σ1 receptor): high (high (Ki = 1–10 nM))

CCOC(=O)C1CCN([C@@H]2Cc3ccccc3C[C@H]2O)CC1.Cl (relative stereo) [Compound 34e, trans-3-[4-Ethoxycarbonylpiperidyl]-2-hydroxy-1,2,3,4-tetrahydronaphthalene hydrochloride]
Selectivity Index Ki-σ1/Ki-VAChT (σ1 receptor; Ki (σ1)/Ki (VAChT)): >14.6 | Selectivity Index Ki-σ2/Ki-VAChT (σ2 receptor): >14.6

Cl.O=C(C1CCN([C@@H]2Cc3ccccc3C[C@H]2O)CC1)N1CCN(Cc2ccccc2)CC1 (relative stereo) [Compound 34d, trans-3-[4-(4-Benzylpiperazinyl)carbonylpiperidyl]-2-hydroxy-1,2,3,4-tetrahydronaphthalene hydrochloride]
Selectivity Index Ki-σ2/Ki-VAChT (σ2 receptor): >480.8 | VAChT/σ selectivity (in words) (Torpedo VAChT [2]): moderate selectivity

Cl.Nc1cccc2c1C[C@@H](O)[C@H](N1CCC(C(=O)c3cccs3)CC1)C2 [Compound 31f, 8-Amino-3-[4-(thien-2-yl)carbonylpiperidyl]-2-hydroxy-1,2,3,4-tetrahydronaphthalene hydrochloride]
Selectivity Index Ki-σ1/Ki-VAChT (σ1 receptor): >7.5 | Selectivity Index Ki-σ2/Ki-VAChT (σ2 receptor): >7.5

Cl.Nc1cccc2c1C[C@@H](N1CCC(C(=O)c3ccc(F)cc3)CC1)[C@H](O)C2 [Compound 30b, 5-Amino-3-[4-(p-fluorobenzoyl)piperidinyl]-2-hydroxy-1,2,3,4,-tetrahydronaphthalene hydrochloride]
Selectivity Index Ki-σ1/Ki-VAChT (σ1 receptor): >416.7 | Selectivity Index Ki-σ2/Ki-VAChT (σ2 receptor): >416.7

Cl.O=C(C1CCN([C@@H]2Cc3ccccc3C[C@H]2O)CC1)N1CCC(Cc2ccccc2)CC1 (relative stereo) [Compound 34c, trans-3-[4-(4-Benzylpiperidyl)carbonylpiperidyl]-2-hydroxy-1,2,3,4-tetrahydronaphthalene hydrochloride]
Selectivity Index Ki-σ2/Ki-VAChT (σ2 receptor): >416.7

Cl.O=C(C1CCN([C@@H]2Cc3ccccc3C[C@H]2O)CC1)N1CCCCC1 (relative stereo) [Compound 34a, Trans-3-[4-(piperidyl)carbonylpiperidyl]-2-hydroxy-1,2,3,4-tetrahydronaphthalene hydrochloride]
Selectivity Index Ki-σ1/Ki-VAChT (σ1 receptor; Ki (σ1)/Ki (VAChT)): >32.3 | Selectivity Index Ki-σ2/Ki-VAChT (σ2 receptor): >32.3

Cl.O=C(c1ccc(I)s1)C1CCN([C@@H]2Cc3ccccc3C[C@H]2O)CC1 (relative stereo) [Compound 28h, trans-3-[4-(5-Iodothienylcarbonyl)piperidinyl]-2-hydroxy-1,2,3,4-tetrahydronaphthalene hydrochloride]
VAChT/σ selectivity (in words) (Torpedo VAChT [2]): high VAChT/σ selectivity

Cl.O=C(C1CCN([C@@H]2Cc3ccccc3C[C@H]2O)CC1)N1CCC(c2ccccc2)CC1 (relative stereo) [Compound 34b, trans-3-[4-(4-Phenylpiperidyl)carbonylpiperidyl]-2-hydroxy-1,2,3,4-tetrahydronaphthalene hydrochloride]
Selectivity Index Ki-σ2/Ki-VAChT (σ2 receptor): >483.1
